Target: T1, human S1P1 receptor (Homo sapiens, UniProt P21453)
T1 construct: expressed in transfected cells; membranes used
Assay: GTP γ35S binding assay for S1P1 activity
Type: biochemical
Set-up: % stimulation: reference not given here
Conditions: for % stimulation: S1P1 receptor, agonist-induced; for EC50: membranes of cells stably expressing S1P1 receptor, agonist mode, 0.08 to 5,000 nM
Protocol: Novel compounds were synthesized and tested for S1P1 activity using the GTP γ^35S binding assay. These compounds may be assessed for their ability to activate or block activation of the human S1P1 receptor in cells stably expressing the S1P1 receptor. GTP γ^35S binding was measured in the medium containing (mM) HEPES 25, pH 7.4, MgCl2 10, NaCl 100, dithiothreitol 0.5, digitonin 0.003%, 0.2 nM GTP γ^35S, and 5 μg membrane protein in a volume of 150 μl. Test compounds were included in the concentration range from 0.08 to 5,000 nM unless indicated otherwise. Membranes were incubated with 100 μM 5′-adenylylimmidodiphosphate for 30 min, and subsequently with 10 μM GDP for 10 min on ice. Drug solutions and membrane were mixed, and then reactions were initiated by adding GTP γ^35S and continued for 30 min at 25° C. Reaction mixtures were filtered over Whatman GF/B filters under vacuum, and washed three times with 3 mL of ice-cold buffer (HEPES 25, pH 7.4, MgCl2 10 and NaCl 100). Filters were dried and mixed with scintillant, and counted for ^35S activity using a β-counter. Agonist-induced GTP γ^35S binding was obtained by subtracting that in the absence of agonist. In case of antagonist assay, the reaction mixture contained 10 nM S1P in the presence of test antagonist at concentrations ranging from 0.08 to 5000 nM.

T1 sequence (P21453 whole entry): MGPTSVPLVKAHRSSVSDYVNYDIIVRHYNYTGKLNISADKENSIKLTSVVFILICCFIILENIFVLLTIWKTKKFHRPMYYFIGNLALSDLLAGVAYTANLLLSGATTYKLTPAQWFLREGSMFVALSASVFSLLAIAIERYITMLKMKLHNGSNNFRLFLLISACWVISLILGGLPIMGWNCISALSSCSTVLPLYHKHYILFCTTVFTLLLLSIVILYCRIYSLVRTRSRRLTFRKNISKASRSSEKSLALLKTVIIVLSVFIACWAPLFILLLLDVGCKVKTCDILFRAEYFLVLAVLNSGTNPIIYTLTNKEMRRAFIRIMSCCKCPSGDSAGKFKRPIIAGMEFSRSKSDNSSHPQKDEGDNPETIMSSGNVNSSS

% stimulation [%]	EC50 [nM]	SMILES
67	6.3	CC(C)Oc1ccc(C#Cc2ccc(Cn3ccnc3)cc2)cc1C#N [Compound 1, 5-{[4-(1H-imidazol-1-ylmethyl)phenyl]ethynyl}-2-isopropoxybenzonitrile]
81	14.7	CC(C)Oc1ccc(C#Cc2ccc(Cn3ccnc3)cc2)cc1Cl [Compound 3, 1-{4-[(3-chloro-4-isopropoxyphenyl)ethynyl]-benzyl}-1H-imidazole]
108	7.52	CC(C)Oc1ccc(C#Cc2ccc(Cn3ccnc3)cc2Cl)cc1C#N [Compound 5, 5-{[2-chloro-4-(1H-imidazol-1-ylmethyl)phenyl]ethynyl}-2-isopropoxybenzonitrile]

Continued, molecule first:

SMILES	% stimulation [%]	EC50 [nM]
CC(C)Oc1ccc(C#Cc2ccc(CN3CCCC3)cc2)cc1C#N [Compound 2, 2-isopropoxy-5-{[4-(pyrrolidin-1-ylmethyl)phenyl]ethynyl}benzonitrile]	110	365
Cc1cc(Cn2ccnc2)ccc1C#Cc1ccc(OC(C)C)c(C#N)c1 [Compound 4, 5-{[4-(1H-imidazol-1-ylmethyl)-2-methylphenyl]ethynyl}-2-isopropoxybenzonitrile]	70	3.1

— patent US9079864B2, “Modulators of S1P receptors” (Allergan, Inc., priority 2010, dated 2015)
